Measurements from US20250129067A1 (Progentos Therapeutics, Inc., priority 2021, published 2025).
Where two headings read alike, the source gives them in different places.

Tests used:
[1] = system: GPR17+ cells (newly differentiated oligodendrocytes); assay: In vivo OPC differentiation, GPR17+ cells in brain; settings: for GPR17 Fold Induction (Over Vehicle): dose not assignable from Table 10, GPR17+ cells in brain, mice
[2] = biological target: PDGFRα (Homo sapiens (Human), UniProt P16234); assay: PDGFRα kinase enzyme assay (Promega PDGFRα Kinase Enzyme System, ADP-Glo); type: biochemical; settings: 150 uM ATP
In short: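 Purified PDGFRα protein (20 ng) reacted with test compound per the Promega kinase system protocol. ADP formed was measured by ADP-Glo luminescence against a standard curve, giving IC50.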

[3] = system: Oligodendrocyte progenitor cells (OPCs); assay: In vitro OPC differentiation assay, GPR17 expression (immunocytochemistry); settings: 72 hours, fold change over vehicle; for GPR17 Fold Induction (Over Vehicle; 3 μM): 3 μM (10× concentration, final 0.3 μM); for GPR17 Fold Induction (Over Vehicle; 5 μM): 5 μM (10× concentration, final 0.5 μM)
[4] = system: Oligodendrocyte progenitor cells (OPCs); assay: In vitro OPC differentiation assay, MBP expression (immunocytochemistry); settings: 72 hours of treatment; fold change over vehicle
[5] = Mus musculus, po, 24 h, read-out: GPR17 Fold Induction (Over Vehicle)
[6] = 20 ng purified PDGFRα, Poly (Glu4Tyr1) substrate, two hours, 11-point dose response, read-out: IC50 Values on PDGFRα Kinase Inhibition
[7] = 11-point dose response, 10,000 nM to 0.169 nM, BLQ = below limit of quantitation, read-out: IC50 Values on PDGFRα Kinase Inhibition, IC50

PDGFRα, sequence (P16234 24-1089): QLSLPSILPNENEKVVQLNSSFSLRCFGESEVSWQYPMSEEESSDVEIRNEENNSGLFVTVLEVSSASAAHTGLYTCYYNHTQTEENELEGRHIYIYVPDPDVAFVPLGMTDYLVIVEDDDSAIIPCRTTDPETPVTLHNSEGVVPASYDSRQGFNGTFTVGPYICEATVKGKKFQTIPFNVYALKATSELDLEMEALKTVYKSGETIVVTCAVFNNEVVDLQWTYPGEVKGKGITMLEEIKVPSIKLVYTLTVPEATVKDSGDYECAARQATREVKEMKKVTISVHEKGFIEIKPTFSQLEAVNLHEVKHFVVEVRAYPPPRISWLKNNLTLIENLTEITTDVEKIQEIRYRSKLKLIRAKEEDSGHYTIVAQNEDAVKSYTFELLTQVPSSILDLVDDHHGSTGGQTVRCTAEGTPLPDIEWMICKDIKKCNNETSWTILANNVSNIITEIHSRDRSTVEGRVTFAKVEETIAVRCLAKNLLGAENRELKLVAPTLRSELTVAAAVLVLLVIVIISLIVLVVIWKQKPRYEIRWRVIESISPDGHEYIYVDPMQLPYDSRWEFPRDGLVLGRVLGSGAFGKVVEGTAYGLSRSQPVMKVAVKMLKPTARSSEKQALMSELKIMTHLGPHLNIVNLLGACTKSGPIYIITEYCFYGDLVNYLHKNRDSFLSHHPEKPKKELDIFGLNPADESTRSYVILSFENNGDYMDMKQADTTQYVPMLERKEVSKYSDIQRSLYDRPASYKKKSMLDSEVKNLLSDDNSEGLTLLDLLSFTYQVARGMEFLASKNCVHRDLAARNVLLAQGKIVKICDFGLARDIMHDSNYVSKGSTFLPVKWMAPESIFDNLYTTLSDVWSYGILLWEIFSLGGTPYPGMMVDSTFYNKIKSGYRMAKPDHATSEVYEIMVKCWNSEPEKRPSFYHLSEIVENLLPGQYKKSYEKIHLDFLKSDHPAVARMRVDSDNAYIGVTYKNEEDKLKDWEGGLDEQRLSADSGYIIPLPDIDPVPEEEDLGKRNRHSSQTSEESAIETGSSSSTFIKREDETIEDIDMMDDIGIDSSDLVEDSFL

Structure (SMILES)	fold induction at 3.3 mg/kg [1, 5]	fold induction at 10 mg/kg [1, 5]	IC50 [2, 6]	IC50 [2, 7]	GPR17 Fold Induction (Over Vehicle; 3 μM) [3]	GPR17 Fold Induction (Over Vehicle; 5 μM) [3]	MBP Fold Induction (Over vehicle) [4]	fold induction at 30 mg/kg [1, 5]	GPR17 Fold Induction (Over Vehicle) [1]	fold induction at 3 mg/kg [1, 5]
Cn1cc(-c2ccc3c(N4CCN(C(=O)OC(C)(C)C)CC4)cnn3c2)cn1 [Compound 11, tert-butyl 4-[6-(1-methyl-1H-pyrazol-4-yl)pyrazolo[1,5-a]pyridin-3-yl]piperazine-1-carboxylate]	2.14	9.93	< 1000 nM	326 nM	10.21	4.22	1.93			
Cn1cc(-c2ccc3c(N4CCN(C(=O)OCc5ccccc5)CC4)cnn3c2)cn1 [Compound 13, Benzyl 4-[6-(1-methyl-1H-pyrazol-4-yl)pyrazolo[1,5-a]pyridin-3-yl]piperazine-1-carboxylate]	1.85		< 1000 nM	421 nM	8.42	4.31	10.24			
Cn1cc(-c2ccn3c(N4CCN(c5ncc(Cc6ccccc6)cn5)CC4)cnc3c2)cn1 [Compound 23, 3-[4-(5-benzylpyrimidin-2-yl)piperazin-1-yl]-7-(1-methyl-1H-pyrazol-4-yl)imidazo[1,2-a]pyridine]				424 nM	9.53	3.98	2.1	14.8		
Cn1cc(-c2ccc3c(N4CCN(C(=O)OCCc5ccccc5)CC4)cnn3c2)cn1 [Compound 30, 2-phenylethyl-4-[6-(1-methyl-1H-pyrazol-4-yl)pyrazolo[1,5-a]pyridin-3-yl]piperazine-1-carboxylate]	9.91			998 nM	6.05	3.25	1.78			
Cn1cc(-c2ccc3c(N4CCN(c5ncc(C(C)(N)c6ccc(F)cc6)cn5)CC4)cnn3c2)cn1 (stereo not drawn) [Compound 35, 1-(4-fluorophenyl)-1-(2-{4-[6-(1-methyl-1H-pyrazol-4-yl)pyrazolo[1,5-a]pyridin-3-yl]piperazin-1-yl}pyrimidin-5-yl)ethanamine]	5.01			2090 nM	7.17	3.57	1.69			
Cn1cc(-c2ccc3c(N4CCN(c5ncc(C(C)(O)c6ccc(F)cc6)cn5)CC4)cnn3c2)cn1 (stereo not drawn) [Compound 46, 1-(4-fluorophenyl)-1-(2-{4-[6-(1-methyl-1H-pyrazol-4-yl)pyrazolo[1,5-a]pyridin-3-yl]piperazin-1-yl}pyrimidin-5-yl)ethanol]				122 nM	6.86		3.97		11.15 fold	
C[C@@H](OC(=O)N1CCN(c2cnn3cc(-c4cnn(C)c4)ncc23)CC1)c1ccccc1 [Compound 49, (R)-1-phenylethyl 4-(6-(1-methyl-1H-pyrazol-4-yl)pyrazolo[1,5-a]pyrazin-3-yl)piperazine-1-carboxylate]	1.68			59.5 nM	9.99	4.42	2.45			
Cc1cccc(Cc2cnc(N3CCN(c4cnn5cc(-c6cnn(C)c6)ccc45)CC3)nc2)c1 [Compound 53, 3-{4-[5-(3-methylbenzyl)pyrimidin-2-yl]piperazin-1-yl}-6-(1-methyl-1H-pyrazol-4-yl)pyrazolo[1,5-a]pyridine]				249 nM	5.60		1.41	4.64	1.41 fold	1.22
COc1cccc(Cc2cnc(N3CCN(c4cnn5cc(-c6cnn(C)c6)ccc45)CC3)nc2)c1 [Compound 54, 3-{4-[5-(3-methoxybenzyl)pyrimidin-2-yl]piperazin-1-yl}-6-(1-methyl-1H-pyrazol-4-yl)pyrazolo[1,5-a]pyridine]				630 nM	6.81		2.14	3.48		1.24
OCCn1cc(-c2ccc3c(N4CCN(c5ncc(Cc6ccccc6)cn5)CC4)cnn3c2)cn1 [Compound 55, 2-(4-{3-[4-(5-benzylpyrimidin-2-yl)piperazin-1-yl]pyrazolo[1,5-a]pyridin-6-yl}-1H-pyrazol-1-yl)ethanol]				120 nM	8.97		5.64			6.43
Cn1cc(-c2ccc3c(N4CCN(c5nc(Cc6ccccc6)co5)CC4)cnn3c2)cn1 [Compound 58, 3-[4-(4-benzyl-1,3-oxazol-2-yl)piperazin-1-yl]-6-(1-methyl-1H-pyrazol-4-yl)pyrazolo[1,5-a]pyridine]				300 nM	7.31		3.72			5.5
Cn1cc(-c2ccc3c(N4CCN(c5ncc(C(O)c6ccccn6)cn5)CC4)cnn3c2)cn1 (stereo not drawn) [Compound 59, (2-{4-[6-(1-methyl-1H-pyrazol-4-yl)pyrazolo[1,5-a]pyridin-3-yl]piperazin-1-yl}pyrimidin-5-yl) (pyridin-2-yl)methanol]				168 nM	5.49		2.56			10.6
Cn1cc(-c2ccc3c(N4CCN(c5ncc(C(O)C6CCCCC6)cn5)CC4)cnn3c2)cn1 (stereo not drawn) [Compound 61, cyclohexyl(2-{4-[6-(1-methyl-1H-pyrazol-4-yl)pyrazolo[1,5-a]pyridin-3-yl]piperazin-1-yl}pyrimidin-5-yl)methanol]				5.26 nM	10.09		9.88			2.36
Cn1cc(-c2ccc3c(N4CCN(C(=O)O[C@@H](c5ccccc5)C(F)(F)F)CC4)cnn3c2)cn1 [Compound 64, (1S)-2,2,2-trifluoro-1-phenylethyl 4-[6-(1-methyl-1H-pyrazol-4-yl)pyrazolo[1,5-a]pyridin-3-yl]piperazine-1-carboxylate]				38.4 nM	6.09		7.73			2.13
Cn1cc(-c2ccc3c(N4CCN(c5ncc(Cc6ccc(F)cc6)cn5)CC4)cnn3c2)cn1 [Compound 66, 3-{4-[5-(4-fluorobenzyl)pyrimidin-2-yl]piperazin-1-yl}-6-(1-methyl-1H-pyrazol-4-yl)pyrazolo[1,5-a]pyridine]				693 nM	5.07		26.50			10.4
CC[C@@H](OC(=O)N1CCN(c2cnn3cc(-c4cnn(C)c4)ccc23)CC1)c1ccccc1 [Compound 80, (1R)-1-(Phenyl)propyl 4-[6-(1-methyl-1H-pyrazol-4-yl)pyrazolo[1,5-a]pyridin-3-yl]piperazine-1-carboxylate]				328 nM	8.19		7.89			1.64
CCC(CC)Cc1cnc(N2CCN(c3cnn4cc(-c5cnn(C)c5)ccc34)CC2)nc1 [Compound 153, 3-(4-(5-(2-ethylbutyl)pyrimidin-2-yl)piperazin-1-yl)-6-(1-methyl-1H-pyrazol-4-yl)pyrazolo[1,5-a]pyridine]				1370 nM	6.37		4.86			1.58
Cn1cc(-c2ccc3c(N4CCN(C(=O)N5CCCCC5)CC4)cnn3c2)cn1 [Compound 163, (4-(6-(1-methyl-1H-pyrazol-4-yl)pyrazolo[1,5-a]pyridin-3-yl)piperazin-1-yl)(piperidin-1-yl)methanone]				350 nM	5.84		48.00			0.95
Cn1cc(-c2ccc3c(N4CCN(c5ncc(C(O)CCc6ccccc6)cn5)CC4)cnn3c2)cn1 (stereo not drawn) [Compound 175, 1-(2-(4-(6-(1-methyl-1H-pyrazol-4-yl)pyrazolo[1,5-a]pyridin-3-yl)piperazin-1-yl)pyrimidin-5-yl)-3-phenylpropan-1-ol]				220 nM	6.34		6.20			5.15
CCC(CC)C(O)c1cnc(N2CCN(c3cnn4cc(-c5cnn(C)c5)ccc34)CC2)nc1 (stereo not drawn) [Compound 177, 2-ethyl-1-(2-(4-(6-(1-methyl-1H-pyrazol-4-yl)pyrazolo[1,5-a]pyridin-3-yl)piperazin-1-yl)pyrimidin-5-yl)butan-1-ol]				75.3 nM	10.12		32.85			2.37
Cn1cc(-c2ccc3c(N4CCN(c5ncc(Cc6cccs6)cn5)CC4)cnn3c2)cn1 [Compound 178, 6-(1-methyl-1H-pyrazol-4-yl)-3-(4-(5-(thiophen-2-ylmethyl)pyrimidin-2-yl)piperazin-1-yl)pyrazolo[1,5-a]pyridine]				2070 nM	5.98		7.25	0.96		
